Source: US7691382B2, “Antiviral polypeptides comprising tandem repeats of APOE 141-149 and variants thereof” (priority 2003, dated 2010)
Where “and” joins values, the source holds several entries; their conditions need not be identical. Equal values may be shown once. Read-outs that look alike come from different tables or passages of the source. Peptide text beside a SMILES is read from it.

Tests used:
HSV1 [1] = type: cell-based, Human herpes simplex virus type 1; settings: for efficacy for reducing HSV1 infectivity (in words): Examples 2 and 3
Summary of the method: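 Plaque reduction in Vero monolayers: ~100 pfu HSV1 pre-mixed 10 min at 37 °C with acetylated/amidated peptides in 0.5% FCS medium, inoculated 60–80 min, then carboxymethylcellulose overlay for 22 or 40 h. Plaques counted after fixing and carbol fuchsin staining; IC50 from % of control versus peptide concentration.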

HSV2 clinical isolates = type: cell-based, Human herpes simplex virus type 2
Experimental: Plaque assays were performed. The methodology was as described in previous Examples for HSV1 plaque assays (including usage of Vero cells) except HSV2 clinical isolates (provided by Prof. Anthony Hart of Liverpool University) were employed instead.

HIV-1 = settings: for activity against HIV, significance by ANOVA (in words): FIG. 3, acutely infected U937 cells; for reduction in infectivity (HIV): at 20 μM; for reduction in infectivity (HIV) / % Decrease in HIV p24 Production, Mean ± sd / % Decrease in HIV p24 Production, Exp. 1-3: U937 cells, 7 days
Experimental: The assay was carried out by incubating HIV infected U937 cells in the presence of various levels of peptide for 7 days, followed by assay for levels of the HIV protein p24 in the cells using an Enzyme Linked Immunoabsorbant Assay (ELISA) technique.

HSV2 = HSV2 plaque formation in HEp-2 cells (Example 1); type: cell-based, Human herpes simplex virus type 2; settings: for HSV2 plaque formation in HEp-2 cells, plaque count, wells 1-4: 1 hour; for HSV2 plaque formation in HEp-2 cells, Mean ± sd: untreated 152 ± 10.7
Experimental: FIG. 2 and table 2 show typical results for the test for anti-HSV2 activity. The assay was carried out as for the anti-HSV1 assay, except Hep-2 cells were used rather than Vero cells. ApoE141-149dp produced a 50% reduction in plaque number at a concentration of around 20 μM. Again note that the peptide was only present in the experimental system for 1 hour.

HSV1 [2] = test: HSV1 plaque formation in Vero cells (Example 1); type: cell-based, Human herpes simplex virus type 1; settings: for HSV1 plaque formation in Vero cells, plaque count, wells 1-4: 1 hour; for HSV1 plaque formation in Vero cells, Mean ± sd: untreated 107 ± 14.2
Experimental: FIG. 1 and table 1 show typical results for the test for anti-HSV1 activity. The assay involved treating confluent Vero cells in 24-well plates with medium containing virus and varying amounts of peptide for one hour, followed by removal of this inoculum, and addition of viscous ‘overlay’ medium, containing 0.2% high viscosity carboxymethylcellulose. The overlay medium only allows infection of those cells immediately adjacent to an infected cell. After 2 days incubation and then fixation and staining, small patches of infected cells (or ‘plaques’) are visible, which are counted. Each of these corresponds to the infection of a single cell during the one hour inoculation. ApoE141-149dp produced a 40% reduction in plaque number at a concentration of around 20 μM. Note the peptide was only present in the experimental system for 1 hour.

[3] = at a concentration of around 20 μM, peptide present 1 hour
[4] = peptide 5 μM in virus inoculum, listed as ApoE141-149dp
[5] = peptide 10 μM in virus inoculum, listed as ApoE141-149dp
[6] = peptide 20 μM in virus inoculum, listed as ApoE141-149dp
[7] = peptide 30 μM in virus inoculum, listed as ApoE141-149dp
[8] = peptide 40 μM in virus inoculum, listed as ApoE141-149dp
[9] = peptide 10 μM in virus inoculum
[10] = peptide 20 μM in virus inoculum
[11] = peptide 30 μM in virus inoculum
[12] = peptide 40 μM in virus inoculum

| Molecule | IC50 (HSV1 [1]) [µM] | IC50 (HSV2 clinical isolates) [µM] | efficacy for reducing HSV1 infectivity (in words) (HSV1 [1]) | activity against HIV, significance by ANOVA (in words) (HIV-1) | reduction in infectivity (HIV) (HIV-1) [%] | % Decrease in HIV p24 Production, Mean ± sd (HIV-1; peptide 10 μM) [%] | % Decrease in HIV p24 Production, Mean ± sd (HIV-1; peptide 20 μM) [%] | % Decrease in HIV p24 Production, Mean ± sd (HIV-1; peptide 30 μM) [%] | % Decrease in HIV p24 Production, Mean ± sd (HIV-1; peptide 40 μM) [%] | % Decrease in HIV p24 Production, Mean ± sd (HIV-1; peptide 50 μM) [%] | HSV2 plaque formation in HEp-2 cells, Mean ± sd (HSV2; peptide 5 μM) | HSV2 plaque formation in HEp-2 cells, Mean ± sd (HSV2; peptide 10 μM) | HSV2 plaque formation in HEp-2 cells, Mean ± sd (HSV2; peptide 20 μM) | HSV2 plaque formation in HEp-2 cells, Mean ± sd (HSV2; peptide 30 μM) | HSV2 plaque formation in HEp-2 cells, Mean ± sd (HSV2; peptide 40 μM) | HSV1 plaque formation in Vero cells, Mean ± sd (HSV1 [2]; peptide 5 μM) | HSV1 plaque formation in Vero cells, Mean ± sd (HSV1 [2]; peptide 10 μM) | HSV1 plaque formation in Vero cells, Mean ± sd (HSV1 [2]; peptide 20 μM) | HSV1 plaque formation in Vero cells, Mean ± sd (HSV1 [2]; peptide 30 μM) | HSV1 plaque formation in Vero cells, Mean ± sd (HSV1 [2]; peptide 40 μM) | other results |
| --- | --- | --- | --- | --- | --- | --- | --- | --- | --- | --- | --- | --- | --- | --- | --- | --- | --- | --- | --- | --- | --- |
| CC(=O)N[C@@H](Cc1c[nH]c2ccccc12)C(=O)N[C@@H](CCCNC(=N)N)C(=O)N[C@@H](CCCCN)C(=O)N[C@@H](Cc1c[nH]c2ccccc12)C(=O)N[C@@H](CCCNC(=N)N)C(=O)N[C@@H](CCCCN)C(=O)N[C@@H](CCCNC(=N)N)C(=O)N[C@@H](Cc1c[nH]c2ccccc12)C(=O)N[C@@H](CCCNC(=N)N)C(=O)N[C@@H](CCCCN)C(=O)N[C@@H](Cc1c[nH]c2ccccc12)C(=O)N[C@@H](CCCNC(=N)N)C(=O)N[C@@H](CCCCN)C(=O)N[C@@H](CCCNC(=N)N)C(=O)N[C@@H](Cc1c[nH]c2ccccc12)C(N)=O [MU 59] (Ac-WRKWRKRWRKWRKRW-NH2) | 9.75 | 10 |  |  |  |  |  |  |  |  |  |  |  |  |  |  |  |  |  |  |  |
| CC(=O)N[C@@H](Cc1c[nH]c2ccccc12)C(=O)N[C@@H](CCCNC(=N)N)C(=O)N[C@@H](CCCCN)C(=O)N[C@@H](Cc1c[nH]c2ccccc12)C(=O)N[C@@H](CCCNC(=N)N)C(=O)N[C@@H](CCCCN)C(=O)N[C@@H](CCCNC(=N)N)C(=O)N[C@@H](Cc1c[nH]c2ccccc12)C(=O)N[C@@H](Cc1c[nH]c2ccccc12)C(=O)N[C@@H](CC(C)C)C(=O)N[C@@H](CCCNC(=N)N)C(=O)N[C@@H](CCCCN)C(=O)N[C@@H](CC(C)C)C(=O)N[C@@H](CCCNC(=N)N)C(=O)N[C@@H](CCCCN)C(=O)N[C@@H](CCCNC(=N)N)C(=O)N[C@@H](CC(C)C)C(=O)N[C@@H](CC(C)C)C(N)=O [GIN 34] (Ac-WRKWRKRWWLRKLRKRLL-NH2) | 6 | < 3.3 | also had efficacy |  |  |  |  |  |  |  |  |  |  |  |  |  |  |  |  |  |  |
| CC(=O)N[C@@H](Cc1c[nH]c2ccccc12)C(=O)N[C@@H](CCCNC(=N)N)C(=O)N[C@@H](CCCCN)C(=O)N[C@@H](Cc1c[nH]c2ccccc12)C(=O)N[C@@H](CCCNC(=N)N)C(=O)N[C@@H](CCCCN)C(=O)N[C@@H](CCCNC(=N)N)C(=O)N[C@@H](Cc1c[nH]c2ccccc12)C(=O)N[C@@H](Cc1c[nH]c2ccccc12)C(=O)N[C@@H](Cc1c[nH]c2ccccc12)C(=O)N[C@@H](CCCNC(=N)N)C(=O)N[C@@H](CCCCN)C(=O)N[C@@H](Cc1c[nH]c2ccccc12)C(=O)N[C@@H](CCCNC(=N)N)C(=O)N[C@@H](CCCCN)C(=O)N[C@@H](CCCNC(=N)N)C(=O)N[C@@H](Cc1c[nH]c2ccccc12)C(=O)N[C@@H](Cc1c[nH]c2ccccc12)C(N)=O [GIN 7] (Ac-WRKWRKRWWWRKWRKRWW-NH2) |  | < 3.3 |  |  |  |  |  |  |  |  |  |  |  |  |  |  |  |  |  |  |  |
| CC(C)C[C@H](NC(=O)[C@H](CC(C)C)NC(=O)[C@H](CCCNC(=N)N)NC(=O)[C@H](CCCCN)NC(=O)[C@H](CCCNC(=N)N)NC(=O)[C@H](CC(C)C)NC(=O)[C@H](CCCCN)NC(=O)[C@H](CCCNC(=N)N)NC(=O)[C@H](CC(C)C)NC(=O)[C@H](CC(C)C)NC(=O)[C@H](CC(C)C)NC(=O)[C@H](CCCNC(=N)N)NC(=O)[C@H](CCCCN)NC(=O)[C@H](CCCNC(=N)N)NC(=O)[C@H](CC(C)C)NC(=O)[C@H](CCCCN)NC(=O)[C@H](CCCNC(=N)N)NC(=O)[C@@H](N)CC(C)C)C(=O)O [GIN 1] (H-LRKLRKRLLLRKLRKRLL-OH) | 16.5 |  | good efficacy | significantly active | 95 | 83.94 ± 11.84 | 95.02 ± 1.89 | 90.78 ± 4.49 | 95.87 ± 0.81 | 94.79 ± 1.34 | 141 ± 13.3 | 125 ± 8.7 | 77 ± 5.2 | 74 ± 2.9 | 57 ± 9.1 | 110 ± 13.2 | 81 ± 7.9 | 65 ± 2.6 | 66 ± 9.0 | 63 ± 6.6 | % Decrease in HIV p24 Production, Exp. 1-3 (HIV-1; peptide 10 μM, listed as ApoE141-149dp): 91.66% and 70.31% and 89.85%; % Decrease in HIV p24 Production, Exp. 1-3 (HIV-1; peptide 20 μM, listed as ApoE141-149dp): 96.87% and 95.08% and 93.10%; % Decrease in HIV p24 Production, Exp. 1-3 (HIV-1; peptide 30 μM, listed as ApoE141-149dp): 95.94% and 88.63% and 87.77%; % Decrease in HIV p24 Production, Exp. 1-3 (HIV-1; peptide 40 μM, listed as ApoE141-149dp): 96.80% and 95.47% and 95.33%; % Decrease in HIV p24 Production, Exp. 1-3 (HIV-1; peptide 50 μM, listed as ApoE141-149dp): 95.73% and 93.25% and 95.38%; reduction in plaque number (HSV2) (HSV2; [3]): 50%; HSV2 plaque formation in HEp-2 cells, plaque count, wells 1-4 (HSV2; [4]): 160 and 134 and 140 and 130; HSV2 plaque formation in HEp-2 cells, plaque count, wells 1-4 (HSV2; [5]): 125 and 113 and 131 and 132; HSV2 plaque formation in HEp-2 cells, plaque count, wells 1-4 (HSV2; [6]): 82 and 72 and 73 and 81; HSV2 plaque formation in HEp-2 cells, plaque count, wells 1-4 (HSV2; [7]): 76 and 77 and 71 and 72; HSV2 plaque formation in HEp-2 cells, plaque count, wells 1-4 (HSV2; [8]): 51 and 59 and 69 and 49; reduction in plaque number (HSV1) (HSV1 [2]; [3]): 40%; HSV1 plaque formation in Vero cells, plaque count, wells 1-4 (HSV1 [2]; [4]): 129 and 106 and 103 and 100; HSV1 plaque formation in Vero cells, plaque count, wells 1-4 (HSV1 [2]; [5]): 73 and 87 and 76 and 89; HSV1 plaque formation in Vero cells, plaque count, wells 1-4 (HSV1 [2]; [6]): 68 and 67 and 63; HSV1 plaque formation in Vero cells, plaque count, wells 1-4 (HSV1 [2]; [7]): 72 and 71 and 56; HSV1 plaque formation in Vero cells, plaque count, wells 1-4 (HSV1 [2]; [8]): 64 and 65 and 53 and 68 |
| ApoE263-286: apoE263-286 peptide tested alongside apoE141-149dp in Example 1 (SWFEPLVEDMQRQWAGLVEKVQAA; UniProt P02649 281-304, looked up, fragment) [reference compound] |  |  |  | did not reach significance | 20 | 23.21 ± 12.79 | 22.77 ± 13.07 | 35.85 ± 7.21 | 38.87 ± 12.70 | 40.16 ± 6.25 | 152 ± 12.0 | 141 ± 16.1 | 146 ± 27.3 | 124 ± 24.2 | 131 ± 24.2 | 120 ± 5.5 | 114 ± 11.1 | 127 ± 17.0 | 121 ± 11.2 | 126 ± 11.2 | % Decrease in HIV p24 Production, Exp. 1-3 (HIV-1; peptide 30 μM): 37.94% and 27.83% and 41.78%; % Decrease in HIV p24 Production, Exp. 1-3 (HIV-1; peptide 50 μM): 33.36% and 41.45% and 45.66%; HSV2 plaque formation in HEp-2 cells, plaque count, wells 1-4 (HSV2; peptide 5 μM in virus inoculum): 135 and 160 and 161 and 152; HSV2 plaque formation in HEp-2 cells, plaque count, wells 1-4 (HSV2; [9]): 157 and 121 and 151 and 134; HSV2 plaque formation in HEp-2 cells, plaque count, wells 1-4 (HSV2; [10]): 118 and 150 and 182 and 134; HSV2 plaque formation in HEp-2 cells, plaque count, wells 1-4 (HSV2; [11]): 118 and 117 and 103 and 159; HSV2 plaque formation in HEp-2 cells, plaque count, wells 1-4 (HSV2; [12]): 132 and 144 and 125 and 124; HSV1 plaque formation in Vero cells, plaque count, wells 1-4 (HSV1 [2]; peptide 5 μM in virus inoculum): 113 and 119 and 122 and 126; HSV1 plaque formation in Vero cells, plaque count, wells 1-4 (HSV1 [2]; [9]): 116 and 124 and 102; HSV1 plaque formation in Vero cells, plaque count, wells 1-4 (HSV1 [2]; [10]): 148 and 112 and 133 and 114; HSV1 plaque formation in Vero cells, plaque count, wells 1-4 (HSV1 [2]; [11]): 134 and 109 and 114 and 125; HSV1 plaque formation in Vero cells, plaque count, wells 1-4 (HSV1 [2]; [12]): 120 and 113 and 125 and 144 |
